pIC50: −log10 of the molar value.

The text below walks through data of patent publication US7112594B2, “Fused bicyclic amide compounds and medicinal use thereof” (Mitsubishi Pharma Corporation, priority 2000, dated 2006).

Data set [1] concerns type II collagen induced arthritis. Nature of the data set: Type II collagen induced arthritis in DBA/1J mouse. The format is in vivo. The settings on record: repeated oral administration.
The test system of data set [2] is rat lymphocytes. The data set can be described thus: Proliferation of rat lymphocytes stimulated by PMA and calcium ionophore A23187 (tritium thymidine uptake). The settings on record: Lymphocyte, PMA 10 ng/ml and A23187 100 ng/ml. The data set is classed as cell-based. How it is done: An RPMI1640 medium (Sigma) was used as a medium, to which kanamycin sulfate (60 μg/ml) and penicillin G potassium (100 units/ml) were added, and then 10% of fetal calf serum (FCS, Gibco) inactivated at 56° C. for 30 min was added and used for the test. The compound of the present invention or a pharmaceutically acceptable salt thereof was dissolved in dimethyl sulfoxide and diluted with the 10% FCS-containing RPMI1640 medium to a desired concentration and used for the test.
The spleens were aseptically removed from 6-week-old male F344 rats or LEW rats (Charles River Japan, Inc.) and minced with tweezers in RPMI1640 medium and then prepared into a single cell suspension of splenic cell. After hematolysis by a hypotonicity treatment using a 9:1 mixed solution of 0.83% aqueous ammonium chloride solution and Tris-HCl buffer (pH 7.65), the suspension was passed through a nylon wool column to give nylon non-adhesive T cell concentration fraction for use. The cell suspension prepared using 10% FCS-containing RPMI1640 medium was added to a flat 96 well microtest plate at 5×10^5 cells/well. The compound of the present invention or a pharmaceutically acceptable salt thereof at a concentration of 0.0001-100 μM, 10 ng/ml of PMA and 100 ng/ml of A23187 were added and the mixture was cultured at 37° C., 5% carbon dioxide and 95% air for 44 hr. After the completion of the culture, tritium thymidine (18.5 kBq/well, specific activity: 185 GBq/mmol, Amersham Pharmacia Biotech) was added and the mixture was cultured at 37° C., 5% carbon dioxide, 95% air for further 4 hr. Then using a cell harvester, the cells were recovered on a glass fiber filter, and using a scintillation counter (MicroBeta 1460) for plate, the radioactivity taken into the cells was measured, and the proliferation of rat lymphocyte induced by stimulation with PMA and A23187 was measured. To be specific, the inhibition rate was calculated by the following formula based on average tritium thymidine uptake (cpm) by lymphocyte in the wells to which various concentrations of the compound of the present invention were added. [formula]
Based on the dose-response curve obtained by plotting average value of tritium thymidine uptake (cpm) or inhibition rate in the longitudinal axis and concentration in the horizontal axis, the concentration (IC50) of the compound that inhibits the level to 50% of the value of the control group was determined by nonlinear regression.

Consider `Cc1c(C(=O)Nc2ccc(C(F)(F)F)cc2)cnn1-c1ccc(F)cc1` [1-(4-fluorophenyl)-N-(4-trifluoromethylphenyl)-5-methylpyrazole-4-carboxamide], for which the “improvement of severity of developed arthritis, swelling of the limbs or destruction of joint” value in data set [1] (10 mg/kg body weight) is given as “did not improve”. In data set [1] (30 mg/kg body weight), the death entry is “confirmed death”. As to `Cc1[nH]c2ccc(F)cc2c1C(=O)Nc1ccc(Oc2ccccc2)c(C#N)c1` [Example 6, N-(3-cyano-4-phenoxyphenyl)-5-fluoro-2-methyl-1H-indole-3-carboxamide], the negative-log IC50 (pIC50) (usually the IC50 on a negative log10 scale, so that one unit is a factor of ten) in data set [2] was 6.41.

In the case of `N#Cc1cc(NC(=O)c2cc3ccccc3s2)ccc1N1CCN(CCO)CC1` [Example 11, N-[3-cyano-4-(4-(2-hydroxyethyl)piperazin-1-yl)phenyl]benzo[b]thiophene-2-carboxamide], the pIC50 in data set [2] was 5.82. For `N#Cc1cc(NC(=O)c2cc3ccccc3o2)ccc1N1CCC(CCO)CC1` [Example 20, N-{3-cyano-4-[4-(2-hydroxyethyl)piperidin-1-yl]phenyl}benzo[b]furan-2-carboxamide], the pIC50 in data set [2] was 6.64.

Consider `CC(C)c1ccc2c(O)c(C(=O)Nc3ccc(OCC(C)(C)C)c(C#N)c3)sc2n1` [Example 28, N-(3-cyano-4-neopentyloxyphenyl)-3-hydroxy-6-isopropylthieno[2,3-b]pyridine-2-carboxamide], for which the pIC50 in data set [2] was 5.70.
